This note sets out measurements from US20110086886A2, “INSECTICIDAL ISOXAZOLINES” (Bayer CropScience AG, priority 2006, published 2011).

Bounds are passed on as bounds.

The subject of series [1] is Myzus persicas resistant to organic phosphorous agents and carbamate agents. As to the kind of experiment: Test for Myzus persicas resistant to organic phosphorous agents and carbamate agents. In kind it is in vivo. To be noted: effective component concentration of 500 ppm; spray on egg plant; 24 hours after spraying. On the procedure: (§1) In order to obtain a preparation of a proper active compound, 1 part by weight of an active compound was mixed with the stated amounts of solvent and emulsifier and the mixture was diluted to a specified concentration with water.
About 200 head per plantlet of cultivated Myzus persicas resistant to phosphorous agents and carbamate agents were inoculated on an egg plant. The aqueous dilution containing the above prepared active compound having a specified concentration was sprayed on the egg plant in a sufficient amount by a spray gun one day after the inoculation. The egg plant was allowed to stand in a 28° C. green house, to calculate the insecticidal ratio 24 hours after the solution was sprayed. In this case, the test was made twice repeatedly.

Another series deals with Spodoptera litura larvae. As to the kind of experiment: Test for Spodoptera litura larvae (leaf dip). In kind it is in vivo. To be noted: effective component concentration of 500 ppm, 3rd-instar larvae on dipped sweet potato leaves, after 7 days; for pest or weed control at 500 ppm: foliar, 168 h, read-out: insecticidal ratio. As to the method: as §1
The leaves of sweat potatoes were dipped in the test solution diluted to a specified concentration with water. After these leaves were dried in air to remove the chemical solution, they were placed in a Petri dish of 9 cm in diameter, in which 10 Spodoptera litura larvae of the 3rd-instar were set free. The Petri dish was placed in a thermostatic chamber kept at 25° C. and the leaves of sweat potatoes were added after 2 days and 4 days, to examine the number of dead larvae after 7 days, thereby calculating the insecticidal ratio of the chemical solution.
In this test, an average of the results in two Petri dishes in one section was calculated.

Another series deals with Aulacophora femoralis. As to the kind of experiment: Test for Aulacophora femoralis (spray test). In kind it is in vivo. To be noted: effective component concentration of 500 ppm; 2nd-instar, dipped cucumber leaves; after 7 days. As to the method: as §1
The leaves of cucumbers were dipped in the aqueous solution diluted to a specified concentration with water. After the chemical solution was dried in air, these leaves were placed in a plastic cup, in which sterilized black soil was placed. 5 Aulacophora femoralis of the 2nd-instar were set free in the soil, to examine the number of dead insects after 7 days, thereby calculating the insecticidal ratio of the chemical solution.

Series [2] has as its system Ctenocephalides felis, strain "Georgi". As to the kind of experiment: Test for cat fleas / oral uptake. In kind it is in vivo. To be noted: in Bos taurus, 48 h, read-out: kill (mortality). On the procedure: 20 mg of the active compound are dissolved in 1 ml dimethylsulphoxide To prepare a suitable formulation (e.g. 100 ppm), the active compound solution is diluted to the respective desired concentration with cattle blood (e.g. 1 part by weight active compound solution with 199 parts by weight cattle blood).
20 unfed adult fleas (Ctenocephalides felis, strain “Georgi”) are placed into a chamber (Ø 5 cm) whose top and bottom are closed with gauze. A metal cylinder whose underside is covered with parafilm is placed onto the chamber. The cylinder contains the blood/active compound formulation which can be taken up by the fleas through the parafilm membrane. Whereas the blood is warmed to 37° C., the temperature in the area of the flea chambers is adjusted to room temperature.
After the desired time the mortality in % is determined. Here 100% means that all fleas were killed; 0% means that no fleas were killed.

For another series, the system named is Lucilia cuprina larvae. As to the kind of experiment: Test for Lucilia cuprina larvae. To be noted: 48 h, read-out: larval mortality. In kind it is in vivo. As to the method:
20 mg of active compound are dissolved in 1 ml of dimethyl sulphoxide. To prepare a suitable formulation (e.g. 100 ppm), the active compound solution is diluted to the respective desired concentration with water (e.g. 1 part by weight active compound solution with 199 parts by weight water).
Approximately 20 Lucilia cuprina larvae are introduced into a test tube which contains approx. 1 cm^3 horse meat and 0.5 ml of the active compound preparation to be tested. After 48 hours, the efficacy of the active compound preparation is determined as % larval mortality. 0%: no larvae were killed, 100%: all larvae were killed.

On to `N#Cc1cc(C2=NOC(c3cc(Cl)cc(Cl)c3)(C(F)(F)F)C2)ccc1-n1cnnn1` (stereo not shown) [Compound 153], for which the insecticidal ratio (in series [1]; in the series on Spodoptera litura larvae; with Aulacophora femoralis) was 100% each time.
A word on the mortality: it is the percentage killed. Take `N#Cc1cc(C2=NOC(c3cc(Cl)cc(Cl)c3)(C(F)(F)F)C2)ccc1-n1cc(Cl)cn1` (stereo not shown) [Compound 17]: the mortality at 100 ppm in series [2] is greater than 80%; in the series on Lucilia cuprina larvae, greater than 95%. The pest or weed control at 500 ppm with Spodoptera litura larvae worked out at 100%.
Turning to `N#Cc1cc(C2=NOC(c3cccc(C(F)(F)F)c3)(C(F)(F)F)C2)ccc1-n1cncn1` (racemic) [Compound 126], the insecticidal ratio in the series on Spodoptera litura larvae and in the series on Aulacophora femoralis was 100% in each case.
With `N#Cc1cc(C2=NOC(c3cc(Cl)cc(Cl)c3)(C(F)(F)F)C2)ccc1-n1cc([N+](=O)[O-])cn1` (stereo not shown) [Compound 21], the insecticidal ratio in the series on Spodoptera litura larvae and in the series with Aulacophora femoralis was 100% each time.
For `N#Cc1cc(C2=NOC(c3cc(Cl)cc(Cl)c3)(C(F)(F)F)C2)ccc1-n1cc(N)cn1` (stereo not shown) [Compound 181], the insecticidal ratio in the series on Spodoptera litura larvae and with Aulacophora femoralis was 100% in each case.
As for `FC(F)(F)C1(c2cc(Cl)cc(Cl)c2)CC(c2ccc(-n3cncn3)c(I)c2)=NO1` (racemic) [Compound 98], the insecticidal ratio in the series on Spodoptera litura larvae and with Aulacophora femoralis was 100% throughout.
For the compound `N#Cc1cc(C2=NOC(c3cccc(C(F)(F)F)c3)(C(F)(F)F)C2)ccc1-n1cc([N+](=O)[O-])cn1` (stereo not shown) [Compound 38], the insecticidal ratio (in series [1]; with Spodoptera litura larvae; with Aulacophora femoralis) was 100% in each case.
As for `CCC(=O)Nc1cc(C2=NOC(c3cc(Cl)cc(Cl)c3)(C(F)(F)F)C2)ccc1-n1cncn1` (racemic) [Compound 107], the insecticidal ratio in the series with Spodoptera litura larvae and in the series on Aulacophora femoralis was 100% in each case.
For `FC(F)(F)c1cc(C(F)(F)F)cc(C2(C(F)(F)F)CC(c3ccc(-n4cncn4)c(Br)c3)=NO2)c1` (racemic) [Compound 134], the insecticidal ratio in the series on Spodoptera litura larvae and with Aulacophora femoralis was 100% in each case.
For `N#Cc1cc(C2=NOC(c3cc(Cl)cc(Cl)c3)(C(F)(F)F)C2)ccc1-n1cncn1` (stereo not shown) [Compound 101, 5-[5-(3,5-dichlorophenyl)-5-(trifluoromethyl)-4,5-dihydroisoxazol-3-yl)-2-(1H-1,2,4-triazol-1-yl)benzonitrile], the insecticidal ratio (in series [1]; in the series on Aulacophora femoralis) was 100% throughout. Moreover, the pest or weed control at 500 ppm with Spodoptera litura larvae was 100%.
As for `O=[N+]([O-])c1cc(C2=NOC(c3cc(Cl)cc(Cl)c3)(C(F)(F)F)C2)ccc1-n1cncn1` (stereo not shown) [Compound 104, 1-{4-[5-[3,5-dichlorophenyl]-5-(trifluoromethyl)-4,5-dihydroisoxazol-3-yl]-2-nitrophenyl}-1H-1,2,4-triazole], the pest or weed control at 500 ppm in the series with Spodoptera litura larvae is 100%. In the series on Aulacophora femoralis, the insecticidal ratio is recorded as 100%.
On to `O=[N+]([O-])c1cc(C2=NOC(c3cccc(Cl)c3)(C(F)(F)F)C2)ccc1-n1cncn1` (racemic) [Compound 90], for which the insecticidal ratio with Spodoptera litura larvae and in the series with Aulacophora femoralis was 100% in each case.
`FC(F)(F)C1(c2cc(Cl)cc(Cl)c2)CC(c2ccc(-n3cnnn3)c(Cl)c2)=NO1` (racemic) [Compound 150]: the insecticidal ratio in the series with Spodoptera litura larvae and in the series with Aulacophora femoralis was 100% each time.
For the compound `N#Cc1cc(C2=NOC(c3cc(C(F)(F)F)cc(C(F)(F)F)c3)(C(F)(F)F)C2)ccc1-n1cnnn1` (stereo not shown) [Compound 165], the insecticidal ratio in the series with Spodoptera litura larvae and in the series with Aulacophora femoralis was 100% each time.
On to `O=[N+]([O-])c1cc(C2=NOC(c3cc(Cl)cc(Cl)c3)(C(F)(F)F)C2)ccc1-n1cc(F)cn1` (stereo not shown) [Compound 25], for which the insecticidal ratio with Spodoptera litura larvae and with Aulacophora femoralis was 100% throughout.
On to `FC(F)(F)C1(c2cc(Cl)cc(Cl)c2)CC(c2ccc(-n3cncn3)cc2)=NO1` (racemic) [Compound 91], for which the insecticidal ratio in the series on Spodoptera litura larvae and in the series on Aulacophora femoralis was 100% each time.
As to `FC(F)(F)c1cccc(C2(C(F)(F)F)CC(c3ccc(-n4cncn4)cc3)=NO2)c1` (racemic) [Compound 122], the insecticidal ratio in the series on Spodoptera litura larvae and with Aulacophora femoralis was 100% in each case.
Take `O=[N+]([O-])c1cc(C2=NOC(c3cccc(C(F)(F)F)c3)(C(F)(F)F)C2)ccc1-n1cnnn1` (stereo not shown) [Compound 161]: the insecticidal ratio with Spodoptera litura larvae and with Aulacophora femoralis was 100% each time.
As usually defined, the melting point is the temperature of the solid-liquid transition. The compound `FC(F)(F)c1nnnn1-c1ccc(C2=NOC(c3cc(Cl)cc(Cl)c3)(C(F)(F)F)C2)cc1` (stereo not shown) showed a melting point of 147 to 151 °C.
For the compound `FC(F)(F)C1(c2cc(Cl)cc(Cl)c2)CC(c2ccc(-n3cccc3)cc2)=NO1` (stereo not shown), the melting point fell in the range of 206 to 208 °C.
Regarding `N#Cc1cc(C2=NOC(c3cc(C(F)(F)F)cc(C(F)(F)F)c3)(C(F)(F)F)C2)ccc1-n1cncn1` (racemic) [Compound 135], the insecticidal ratio (in series [1]; in the series with Spodoptera litura larvae; in the series on Aulacophora femoralis) was 100% in each case.
Consider `FC(F)(F)C1(c2cc(Cl)cc(Cl)c2)CC(c2ccc(-n3cnnn3)c(Br)c2)=NO1` (stereo not shown) [Compound 151], for which the insecticidal ratio in the series on Spodoptera litura larvae and in the series with Aulacophora femoralis was 100% each time.
`O=[N+]([O-])c1cc(C2=NOC(c3cc(Cl)cc(Cl)c3)(C(F)(F)F)C2)ccc1-n1cnnn1` (stereo not shown) [Compound 154]: the insecticidal ratio in the series with Spodoptera litura larvae and in the series on Aulacophora femoralis was 100% each time.
Turning to `FC(F)(F)C1(c2cccc(Cl)c2)CC(c2ccc(-n3cncn3)cc2)=NO1` (stereo not shown) [Compound 86], the insecticidal ratio with Spodoptera litura larvae and in the series on Aulacophora femoralis was 100% in each case.
As to `N#Cc1cc(C2=NOC(c3cc(Cl)cc(Cl)c3)(C(F)(F)F)C2)ccc1-n1ncnn1` (stereo not shown) [Compound 171], the insecticidal ratio with Spodoptera litura larvae and in the series on Aulacophora femoralis was 100% in each case.
As for `FC(F)(F)C1(c2cc(Cl)cc(Cl)c2)CC(c2ccc(-n3cncn3)c(Cl)c2)=NO1` (racemic) [Compound 94], the insecticidal ratio in the series with Spodoptera litura larvae and in the series on Aulacophora femoralis was 100% in each case.
In the case of `N#Cc1cc(C2=NOC(c3cccc(Cl)c3)(C(F)(F)F)C2)ccc1-n1cncn1` (stereo not shown) [Compound 89], the insecticidal ratio in the series with Spodoptera litura larvae and with Aulacophora femoralis was 100% throughout.
Regarding `FC(F)(F)C1(c2cc(Cl)cc(Cl)c2)CC(c2ccc(-n3cncn3)nc2)=NO1` (racemic) [Compound 114], the insecticidal ratio in the series with Spodoptera litura larvae and in the series with Aulacophora femoralis was 100% in each case.
`Cc1cc(C2=NOC(c3cc(Cl)cc(Cl)c3)(C(F)(F)F)C2)ccc1-n1cncn1` (racemic) [Compound 99]: the insecticidal ratio in the series with Spodoptera litura larvae and in the series with Aulacophora femoralis was 100% each time.
